Assay results reported in patent publication US12582638B2, “Pharmaceutical composition for treating cancer, containing mTOR-signaling inhibitor as active ingredient” (KOREA ADVANCED INSTITUTE OF SCIENCE AND TECHNOLOGY, priority 2020, dated 2026).

Key:
U118MG = assay: Cell viability, CellTiterGlo, 72 hours; format: cell-based; settings: Homo sapiens, U-118-MG, U118MG cells, Brain
Experimental: (§1) In addition to the colorectal cells, 120 cancer cell lines treated with various concentrations of lomitapide were assayed for viability. To analyze cell viability, the cells were incubated with lomitapide at 37° C. for 72 hours in a 5% or 10% CO2 atmosphere and then equilibrated at room temperature for 1 hour, followed by addition of CellTiterGlo reagent (Promega). One hour later, luminescence was measured to calculate cell viability (%). The 120 cell lines were purchased from ATCC (American Type Culture Collection, Virginia, USA).

Mia PaCA 2 = assay: Cell viability, CellTiterGlo, 72 hours; format: cell-based; settings: Homo sapiens, Mia PaCA 2 cells, Pancreas
Experimental: as §1

H4 = assay: Cell viability, CellTiterGlo, 72 hours; format: cell-based; settings: H4 cells, Brain
Experimental: as §1

U87MG = assay: Cell viability, CellTiterGlo, 72 hours; format: cell-based; settings: Homo sapiens, U-87 MG, U87MG cells, Brain
Experimental: as §1

PANC-1 = assay: Cell viability, CellTiterGlo, 72 hours; format: cell-based; settings: Homo sapiens, PANC-1 cells, Pancreas
Experimental: as §1

OVK18 = assay: Cell viability, CellTiterGlo, 72 hours; format: cell-based; settings: OVK18 cells, Ovary
Experimental: as §1

Hutu 80 = assay: Cell viability, CellTiterGlo, 72 hours; format: cell-based; settings: Homo sapiens, HuTu80, Hutu 80 cells, Duodenum
Experimental: as §1

M07e = assay: Cell viability, CellTiterGlo, 72 hours; format: cell-based; settings: M-07e, M07e cells, Blood
Experimental: as §1

HEC-1-A = assay: Cell viability, CellTiterGlo, 72 hours; format: cell-based; settings: Homo sapiens, HEC-1-A cells, Endometrium
Experimental: as §1

RERF-LC-Ad2 = assay: Cell viability, CellTiterGlo, 72 hours; format: cell-based; settings: RERF-LC-Ad2 cells, Lung
Experimental: as §1

DV90 = assay: Cell viability, CellTiterGlo, 72 hours; format: cell-based; settings: Homo sapiens, DV-90, DV90 cells, Lung
Experimental: as §1

LOU-NH91 = assay: Cell viability, CellTiterGlo, 72 hours; format: cell-based; settings: LOU-NH91 cells, Lung
Experimental: as §1

MKN-45 = assay: Cell viability, CellTiterGlo, 72 hours; format: cell-based; settings: Homo sapiens, MKN-45 cells, Stomach
Experimental: as §1

SW948 = assay: Cell viability, CellTiterGlo, 72 hours; format: cell-based; settings: Homo sapiens, SW948 cells, Colon
Experimental: as §1

SK-N-FI = assay: Cell viability, CellTiterGlo, 72 hours; format: cell-based; settings: Homo sapiens, SK-N-FI cells, Brain
Experimental: as §1

SK.BR-3 = assay: Cell viability, CellTiterGlo, 72 hours; format: cell-based; settings: Homo sapiens, SK.BR-3 cells, Breast
Experimental: as §1

MOLM-13 = assay: Cell viability, CellTiterGlo, 72 hours; format: cell-based; settings: Homo sapiens, MOLM-13 cells, Blood
Experimental: as §1

Hs 746T = assay: Cell viability, CellTiterGlo, 72 hours; format: cell-based; settings: Homo sapiens, Hs746T, Hs 746T cells, Stomach
Experimental: as §1

BxPC-3 = assay: Cell viability, CellTiterGlo, 72 hours; format: cell-based; settings: Homo sapiens, BxPC-3 cells, Pancreas
Experimental: as §1

MEC-1 = assay: Cell viability, CellTiterGlo, 72 hours; format: cell-based; settings: Homo sapiens, MEC1, MEC-1 cells, Blood
Experimental: as §1

HL-60 = assay: Cell viability, CellTiterGlo, 72 hours; format: cell-based; settings: Homo sapiens, HL-60 cells, Blood
Experimental: as §1

LN229 = assay: Cell viability, CellTiterGlo, 72 hours; format: cell-based; settings: Homo sapiens, LN-229, LN229 cells, Brain
Experimental: as §1

Kato III = assay: Cell viability, CellTiterGlo, 72 hours; format: cell-based; settings: Homo sapiens, Kato III cells, Stomach
Experimental: as §1

P31/FUJ = assay: Cell viability, CellTiterGlo, 72 hours; format: cell-based; settings: Homo sapiens, P31/FUJ cells, Blood
Experimental: as §1

HT-1080 = assay: Cell viability, CellTiterGlo, 72 hours; format: cell-based; settings: Homo sapiens, HT-1080 cells, Fibrosarcoma
Experimental: as §1

A2780 = assay: Cell viability, CellTiterGlo, 72 hours; format: cell-based; settings: Homo sapiens, A2780 cells, Ovary
Experimental: as §1

SW480 = assay: Cell viability, CellTiterGlo, 72 hours; format: cell-based; settings: Homo sapiens, SW480 cells, Colon
Experimental: as §1

NCI-H838 = assay: Cell viability, CellTiterGlo, 72 hours; format: cell-based; settings: Homo sapiens, NCI-H838 cells, Lung
Experimental: as §1

p-S6K, p-S6, LC3 [1] = assay: Cell signaling assay, western blot, MDA-MB-468; format: cell-based, human; settings: 0, 5, and 10 μM, FIG. 7d
Experimental: (§2) Cells treated with various concentrations (0, 5, and 10 μM) of lomitapide were lysed with RIPA buffer containing a protease-inhibitor cocktail. The whole-cell lysate was incubated on ice for 30 minutes. After centrifugation at 4° C. and 13,300×g for 15 minutes, the supernatant was collected. For use as controls, HCT116, SW480, HT29, MDA-MB-231, and MDA-MB-468 cells were treated with 1 μM of torin, known as an mTOR inhibitor.
For western blot analysis, the supernatant was loaded onto 10% SDS-PAGE gel. The separated proteins were blotted onto a PVDF membrane. Then, the blots were incubated with antibodies at 4° C. for 12 hours as follows (Table 2).
(§3) Then, the blots were washed with TBST (a mixture of tris-buffered saline (TBS) and Tween 20), incubated with horseradish peroxidase-conjugated secondary antibody (Cell signaling) at 37° C. for 1 hour, and washed, followed by detecting enhanced chemiluminescence (ECL; Amersham).

p-S6K, p-S6, LC3 [2] = assay: Cell signaling assay, western blot, SNU1; format: cell-based, human; settings: 0, 5, and 10 μM, FIG. 7f
Experimental: as §2, with “concentration” for “concentrations”, “controls,” for “controls, HCT116, SW480, HT29, MDA-MB-231, and MDA-MB-468”
For western blot analysis, the supernatant was loaded onto 10% SDS-PAGE gel. The separated proteins were blotted onto a PVDF membrane. Then, the blots were incubated with antibodies at 4° C. for 12 hours as follows (Table 3).
as §3

In the case of `O=C(NC1CCN(CCCCC2(C(=O)NCC(F)(F)F)c3ccccc3-c3ccccc32)CC1)c1ccccc1-c1ccc(C(F)(F)F)cc1` [lomitapide, N-(2,2,2-trifluoroethyl)-9-[4-[4-[[[4′-(trifluoromethyl)[1,1′-biphenyl]2-yl]carbonyl]amino]-1-piperidinyl]butyl]-9H-fluoren-9-carboxamide], the IC50 (U118MG) is reported as 2.5 µM, the IC50 (Mia PaCA 2) is reported as 2.9 µM and the IC50 (H4) is reported as 4.6 µM. It also gave an IC50 (U87MG) of 3.1 µM, an IC50 (PANC-1) of 4.5 µM and an IC50 (OVK18) of 3.3 µM. It also gave an IC50 (Hutu 80) of 3 µM, an IC50 (M07e) of 4.2 µM and an IC50 (HEC-1-A) of 4.9 µM. It also gave an IC50 (RERF-LC-Ad2) of 2.6 µM, an IC50 (DV90) of 5.2 µM and an IC50 (LOU-NH91) of 5.7 µM. It also gave an IC50 (MKN-45) of 3.9 µM, an IC50 (SW948) of 4.5 µM and an IC50 (SK-N-FI) of 3.4 µM. For the same molecule, the IC50 (SK.BR-3) was 3.9 µM, the IC50 (MOLM-13) was 6.3 µM and the IC50 (Hs 746T) was 2.5 µM. It also gave an IC50 (BxPC-3) of 5.7 µM, an IC50 (MEC-1) of 3.3 µM and an IC50 (HL-60) of 3.3 µM. The IC50 (LN229) was 2.7 µM, the IC50 (Kato III) was 5.4 µM and the IC50 (P31/FUJ) was 3.1 µM. The IC50 (HT-1080) was 3.9 µM, the IC50 (A2780) was 2.7 µM and the IC50 (SW480) was 2.5 µM. For the same molecule, the IC50 (NCI-H838) was 3.8 µM, the “conversion from LC3I into LC3II” value (p-S6K, p-S6, LC3 [1]) was “increased induction of conversion from LC3I into LC3II” and the “phosphorylation levels of target proteins (p-S6K and p-S6)” value (p-S6K, p-S6, LC3 [1]) was “remarkably decreased phosphorylation levels”. For the same molecule, the “conversion from LC3I into LC3II” value (p-S6K, p-S6, LC3 [2]) was “increased induction of conversion from LC3I into LC3II” and the “phosphorylation levels of target proteins (p-S6K, p-S6)” value (p-S6K, p-S6, LC3 [2]; dose-dependent) was “remarkably decreased phosphorylation levels”.
